Values of other authors as cited in patent publication US20160303177A1, “NUTRITIONAL SUPPLEMENT” (priority 2015, published 2016).

Assays:
[1] = 6 grams
[2] = 8 grams of L-Citrulline with 10 grams of carbohydrate
[3] = 1500 mg per day for 6 weeks, mild to moderate erectile dysfunction
[4] = diseased hearts, 3 grams a day
[5] = two grams of L-Carnitine with 80 mg of carbohydrates
[6] = 300 mg per day
[7] = 300 mgs of EGCG
[8] = washout period
[9] = training in set of 8-15 repetitions
[10] = healthy individuals
[11] = 11.2 mmol/kg of nitrate
[12] = 500 milligrams of nitrate, runners
[13] = 400 mg at three times per day
[14] = 600 mg prior to exercise
[15] = 17.25 grams per day, cyclists
[16] = given before animals were cardiac stressed
[17] = 5 grams at three times a day along with other medications

In the case of NC(=O)NCCC[C@H](N)C(=O)O [L-Citrulline], the ATP production [1] is listed as “increased ATP production”, the ammonia production [1] is listed as “reduced ammonia production” and the muscle protein synthesis [1] is listed as “increased muscle protein synthesis”. The “reduction of creatine depletion” value [1] was 28%, the delay in fatigue [2] was “statistically significant delay in fatigue” and the “men with increase in erection hardness” value [3] was 50%. For the same molecule, the blood pressure [4] was “decrease in blood pressure”, the exercise abilities [4] was “increase in exercise abilities” and the “right ventricular ejection fraction” value [4] was “increase in right ventricular ejection fraction”.
In the case of C[N+](C)(C)C[C@H](O)CC(=O)[O-] [L-Carnitine], the fat burning [5] is given as “increased fat burning” and the “increase in muscle carnitine content” value [5] is given as 21%.
For COC1=C(OC)C(=O)C(C/C=C(\C)CC/C=C(\C)CC/C=C(\C)CC/C=C(\C)CC/C=C(\C)CC/C=C(\C)CC/C=C(\C)CC/C=C(\C)CC/C=C(\C)CCC=C(C)C)=C(C)C1=O [CoQ 10, Coenzyme Q10], the fatigue during exertion [6] is given as “reduce fatigue during the late portions of exertion”, the half-life (in vivo) is given as 5.8 to 8.10 h and the “increase in CoQ10 concentrations” value (supplementation with 90-120 mg) is given as 50-150%.
For O=C(O[C@@H]1Cc2c(O)cc(O)cc2O[C@@H]1c1cc(O)c(O)c(O)c1)c1cc(O)c(O)c(O)c1 [EGCG, epigallocatechin gallate], the “source of energy when taken with a meal” value [7] is given as “a greater proportion of energy comes from dietary fat rather than carbohydrate”.
For NCCC(=O)O [Beta-Alanine], the “time after supplementation still in the muscles at higher levels” value [8] is listed as 8 weeks and the “additional reps in the gym” value [9] is listed as “one to two additional reps”.
In the case of O=[N+]([O-])O [nitrate], the “reduced VO2 (oxygen consumption)” value ([10]; 0.1 mmol/kg of nitrate) is given as 5.4%, the “increase in time to fatigue” value ([10]; 6.2 mmol/kg of nitrate) is given as 15% and the “increase in energy efficiency” value [10] is given as 7.1%. For the same molecule, the “reduction of oxygen muscle extraction” value [11] was 19% and the “improvement of 5K time” value [12] was 41 s.
In the case of C[N+](C)(C)CCOP(=O)([O-])OC[C@H](O)CO [Alpha GPC, Alpha Glycerylphosphorylcholine], the “cognition in mild to moderate Alzheimer's dementia” value [13] is given as “cognitive improvement” and the “peak increase in peak force production during resistance exercise” value [14] is given as 14%.
In the case of O=C[C@H](O)[C@H](O)[C@H](O)CO [D-Ribose], the “rates of ATP production” value [15] is listed as “increased the rates of ATP production back to pre-exercise levels”, the “held out longer before ischemia compared to placebo” value [16] is listed as 25% and the fibromyalgia symptoms [17] is listed as “marked decrease in symptoms”.
